In US10441555B2, “Pharmaceutical composition” (Olatec Therapeutics LLC, priority 2012, dated 2019):
Where a name gives a salt, the structure may show the parent alone.

Key:
[1] = test system: arachidonic acid-induced ear swelling; assay: topical arachidonic acid-induced ear swelling model in mice; type: in vivo; conditions: male ICR mice, topical application 30 min before and 15 min after arachidonic acid; measured at 60 minutes; test compounds 375 mM, indomethacin 14 mM; n=10
Method: The test compounds, indomethacin (positive control), and vehicle were evaluated for anti-inflammatory activity in a topical arachidonic acid-induced ear swelling model in mice. Male ICR mice weighing 22±2 g were used and randomly divided; each group had 10 mice. Arachidonic Acid (0.5 mg in 20 μl of acetone:ethanol/1:1) was applied topically to the anterior and posterior surfaces of the right ear of each mice. Test substances and vehicle, as listed in Table 1 were similarly applied 30 min before and 15 min after arachidonic acid application. The thickness of the right ear and the left ear was measured and the difference calculated as an indication of the inflammation in the right ear. Ear swelling was measured by a Dyer model micrometer gauge at 60 and 90 minutes after arachidonic acid application as an index of inflammation. Percent inhibition was calculated according to the formula: Ic−It/Ic×100, where Ic and It refers to increase of ear thickness (mm) in control and treated mice, respectively. ANOVA and Dunnett's test were employed to ascertain significant difference between vehicle control and treated groups. Significance is set at P<0.05 level.

SMILES	melting point [°C]	% Inhibition of ear swelling [1] [%]
CS(=O)(=O)CCCN (as salt: hydrochloride) [3-(methylsulfonyl)propylamine]	146.9 to 147.4	–
CS(=O)(=O)CCC(N)=O [3-(methylsulfonyl)propionamide]	–	30
CS(=O)(=O)CCCN [3-(methylsulfonyl)propylamine]	–	42
COc1ccc2c(c1)c(CC(=O)O)c(C)n2C(=O)c1ccc(Cl)cc1 [Indomethacin, indomethacin, reference compound]	–	54
